In ChEMBL document CHEMBL3992518, “Peptide Macrocycle Inhibitor of Coagulation Factor XII with Subnanomolar Affinity and High Target Selectivity” (J Med Chem, 2017) one finds Ki data, which are given here for 13 compounds.

In this experiment the target is T1, Coagulation factor XII (Homo sapiens, UniProt P00748).
T1 sequence (P00748 whole entry): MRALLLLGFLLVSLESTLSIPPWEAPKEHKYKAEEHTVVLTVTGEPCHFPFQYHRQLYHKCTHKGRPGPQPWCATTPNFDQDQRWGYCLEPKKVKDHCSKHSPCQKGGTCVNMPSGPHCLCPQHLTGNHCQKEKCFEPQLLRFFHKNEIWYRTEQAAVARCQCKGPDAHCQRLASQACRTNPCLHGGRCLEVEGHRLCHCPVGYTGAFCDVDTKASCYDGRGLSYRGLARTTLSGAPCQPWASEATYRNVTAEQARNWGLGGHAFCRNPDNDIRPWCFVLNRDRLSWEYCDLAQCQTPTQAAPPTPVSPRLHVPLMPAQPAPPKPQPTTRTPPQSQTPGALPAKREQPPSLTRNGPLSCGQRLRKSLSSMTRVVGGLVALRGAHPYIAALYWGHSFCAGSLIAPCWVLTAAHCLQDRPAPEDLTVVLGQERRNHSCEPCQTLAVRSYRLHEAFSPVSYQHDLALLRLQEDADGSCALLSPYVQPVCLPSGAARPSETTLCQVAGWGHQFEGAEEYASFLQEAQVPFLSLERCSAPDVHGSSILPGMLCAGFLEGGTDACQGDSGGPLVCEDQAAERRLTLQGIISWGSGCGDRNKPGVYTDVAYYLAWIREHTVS
The experiment is described as follows: Inhibition of human beta factor 12a using fluorogenic substrate Boc-Gln-Gly-Arg-AMC preincubated for 10 mins followed by addition of substrate measured every min for 30 mins.

pKi: −log10 of the molar value. *1 amine or outer side, *2 acyl side, *3 side chain or, on linkers, in order; H or OH if unused. Where a SMILES comes first, the peptide text is derived from it. Bridges are numbered along the chain shown (N, C = ends). TATA = O=C(CC[*:1])N1CN(C(=O)CC[*:2])CN(C(=O)CC[*:3])C1

Take `CC(C)C[C@@H]1NC(=O)[C@H](CCC(N)=O)NC(=O)[C@H](CCCNC(=N)N)NC(=O)[C@@H]2CSCCC(=O)N3CN(CN(C3)C(=O)CCSC[C@H](NC(=O)[C@@H](N)CCCNC(=N)N)C(=O)N[C@@H](C(C)C)C(=O)N[C@@H](CCCNC(=N)N)C(=O)N[C@@H](CC(C)C)C(=O)N3CCC[C@H]3C(=O)N2)C(=O)CCSC[C@@H](C(=O)N[C@@H](CCCNC(=N)N)C(=O)N[C@@H](Cc2c[nH]c3ccccc23)C(=O)O)NC(=O)[C@H](CCCNC(=N)N)NC1=O` (H-RCVRLPCRQLRCRW-OH; linker 2-7-12 via TATA): the pKi was 6.80.

Take `CC(C)C[C@@H]1NC(=O)[C@H](CCC(N)=O)NC(=O)[C@H](CCCNC(=N)N)NC(=O)[C@@H]2CSCCC(=O)N3CN(CN(C3)C(=O)CCSC[C@H](NC(=O)[C@@H](N)CCCNC(=N)N)C(=O)N[C@@H](Cc3ccc(O)cc3)C(=O)N[C@@H](CCCNC(=N)N)C(=O)N[C@@H](CC(C)C)C(=O)N3CCC[C@H]3C(=O)N2)C(=O)CCSC[C@@H](C(=O)N[C@@H](CCCNC(=N)N)C(=O)N[C@@H](Cc2c[nH]c3ccccc23)C(=O)O)NC(=O)[C@H](CCCNC(=N)N)NC1=O` (H-RCYRLPCRQLRCRW-OH; linker 2-7-12 via TATA): the negative-log Ki (pKi) is 7.49.

In turn, `CC(C)C[C@@H]1NC(=O)[C@H](CCC(N)=O)NC(=O)[C@H](CCCNC(=N)N)NC(=O)[C@@H]2CSCCC(=O)N3CN(CN(C3)C(=O)CCSC[C@H](N)C(=O)N[C@@H](Cc3ccccc3)C(=O)N[C@@H](CCCNC(=N)N)C(=O)N[C@@H](CC(C)C)C(=O)N3CCC[C@H]3C(=O)N2)C(=O)CCSC[C@@H](C(=O)N[C@@H](CCCNC(=N)N)C(=O)O)NC(=O)[C@H](CCCNC(=N)N)NC1=O` (H-CFRLPCRQLRCR-OH; linker 1-6-11 via TATA) showed a pKi of 6.48.

In turn, `CC(C)C[C@@H]1NC(=O)[C@H](CCC(N)=O)NC(=O)[C@H](CCCNC(=N)N)NC(=O)[C@@H]2CSCCC(=O)N3CN(CN(C3)C(=O)CCSC[C@H](NC(=O)[C@@H](N)CCCNC(=N)N)C(=O)N[C@@H](Cc3ccccc3F)C(=O)N[C@@H](CCCNC(=N)N)C(=O)N[C@@H](CC(C)C)C(=O)N3CCC[C@H]3C(=O)N2)C(=O)CCSC[C@@H](C(=O)N[C@@H](CCCNC(=N)N)C(=O)N[C@@H](Cc2c[nH]c3ccccc23)C(=O)O)NC(=O)[C@H](CCCNC(=N)N)NC1=O` showed a pKi of 7.57.

With `CC(C)C[C@@H]1NC(=O)[C@H](CCC(N)=O)NC(=O)[C@H](CCCNC(=N)N)NC(=O)[C@@H]2CSCCC(=O)N3CN(CN(C3)C(=O)CCSC[C@H](NC(=O)[C@@H](N)CCCNC(=N)N)C(=O)N[C@@H](Cc3ccccc3)C(=O)N[C@@H](CCCNC(=N)N)C(=O)N[C@@H](CC(C)C)C(=O)N[C@@H](CC(C)C)C(=O)N2)C(=O)CCSC[C@@H](C(=O)N[C@@H](CCCNC(=N)N)C(=O)N[C@@H](Cc2c[nH]c3ccccc23)C(=O)O)NC(=O)[C@H](CCCNC(=N)N)NC1=O` (H-RCFRLLCRQLRCRW-OH; linker 2-7-12 via TATA), the pKi was 7.89.

With `CC(C)C[C@@H]1NC(=O)[C@H](CCC(N)=O)NC(=O)[C@H](CCCNC(=N)N)NC(=O)[C@@H]2CSCCC(=O)N3CN(CN(C3)C(=O)CCSC[C@H](NC(=O)[C@@H](N)CCCNC(=N)N)C(=O)N[C@@H](Cc3c[nH]c4ccc(O)cc34)C(=O)N[C@@H](CCCNC(=N)N)C(=O)N[C@@H](CC(C)C)C(=O)N3CCC[C@H]3C(=O)N2)C(=O)CCSC[C@@H](C(=O)N[C@@H](CCCNC(=N)N)C(=O)N[C@@H](Cc2c[nH]c3ccccc23)C(=O)O)NC(=O)[C@H](CCCNC(=N)N)NC1=O`, the pKi was 7.03.

`CC(C)C[C@@H]1NC(=O)[C@H](CCCNC(=N)N)NC(=O)[C@H](Cc2ccccc2)NC(=O)[C@@H](NC(=O)[C@@H](N)CCCNC(=N)N)CSCCC(=O)N2CN3CN(C2)C(=O)CCSC[C@H](NC(=O)[C@@H]2CCCN2C1=O)C(=O)N[C@@H](CCCNC(=N)N)C(=O)N[C@@H](CCC(N)=O)C(=O)N[C@@H](CC(C)(C)C)C(=O)N[C@@H](CCCNC(=N)N)C(=O)N[C@H](C(=O)N[C@@H](CCCNC(=N)N)C(=O)N[C@@H](Cc1c[nH]c2ccccc12)C(=O)O)CSCCC3=O`: the pKi was 7.75.

`CC(C)C[C@@H]1NC(=O)[C@H](CCC(N)=O)NC(=O)[C@H](CCCNC(=N)N)NC(=O)[C@@H]2CSCCC(=O)N3CN(CN(C3)C(=O)CCSC[C@H](NC(=O)[C@@H](N)CCCNC(=N)N)C(=O)N[C@@H](Cc3ccccc3)C(=O)N[C@@H](CCCNC(=N)N)C(=O)N[C@@H](CC(C)C)C(=O)N[C@@H](CC(=O)O)C(=O)N2)C(=O)CCSC[C@@H](C(=O)N[C@@H](CCCNC(=N)N)C(=O)N[C@@H](Cc2c[nH]c3ccccc23)C(=O)O)NC(=O)[C@H](CCCNC(=N)N)NC1=O` (H-RCFRLDCRQLRCRW-OH; linker 2-7-12 via TATA): the negative-log Ki (pKi) was 6.92.

Compound `CCCC[C@@H]1NC(=O)[C@H](CCC(N)=O)NC(=O)[C@H](CCCNC(=N)N)NC(=O)[C@@H]2CSCCC(=O)N3CN(CN(C3)C(=O)CCSC[C@H](NC(=O)[C@@H](N)CCCNC(=N)N)C(=O)N[C@@H](Cc3ccccc3)C(=O)N[C@@H](CCCNC(=N)N)C(=O)N[C@@H](CC(C)C)C(=O)N3CCC[C@H]3C(=O)N2)C(=O)CCSC[C@@H](C(=O)N[C@@H](CCCNC(=N)N)C(=O)N[C@@H](Cc2c[nH]c3ccccc23)C(=O)O)NC(=O)[C@H](CCCNC(=N)N)NC1=O` gave a pKi of 7.51.

The compound `CC(C)CC[C@@H]1NC(=O)[C@H](CCC(N)=O)NC(=O)[C@H](CCCNC(=N)N)NC(=O)[C@@H]2CSCCC(=O)N3CN(CN(C3)C(=O)CCSC[C@H](NC(=O)[C@@H](N)CCCNC(=N)N)C(=O)N[C@@H](Cc3ccccc3)C(=O)N[C@@H](CCCNC(=N)N)C(=O)N[C@@H](CC(C)C)C(=O)N3CCC[C@H]3C(=O)N2)C(=O)CCSC[C@@H](C(=O)N[C@@H](CCCNC(=N)N)C(=O)N[C@@H](Cc2c[nH]c3ccccc23)C(=O)O)NC(=O)[C@H](CCCNC(=N)N)NC1=O` showed a pKi of 7.53.

Take `CC(C)C[C@@H]1NC(=O)[C@H](CCC(N)=O)NC(=O)[C@H](CCCNC(=N)N)NC(=O)[C@@H]2CSCCC(=O)N3CN(CN(C3)C(=O)CCSC[C@H](NC(=O)[C@@H](N)CCCNC(=N)N)C(=O)N[C@@H](CC(C)C)C(=O)N[C@@H](CCCNC(=N)N)C(=O)N[C@@H](CC(C)C)C(=O)N3CCC[C@H]3C(=O)N2)C(=O)CCSC[C@@H](C(=O)N[C@@H](CCCNC(=N)N)C(=O)N[C@@H](Cc2c[nH]c3ccccc23)C(=O)O)NC(=O)[C@H](CCCNC(=N)N)NC1=O` (H-RCLRLPCRQLRCRW-OH; linker 2-7-12 via TATA): the pKi is 7.55.

In turn, `CC(C)C[C@@H]1NC(=O)[C@H](CCCNC(=N)N)NC(=O)[C@H](Cc2ccccc2)NC(=O)[C@@H](NC(=O)[C@@H](N)CCCNC(=N)N)CSCCC(=O)N2CN3CN(C2)C(=O)CCSC[C@H](NC(=O)[C@@H]2CCCN2C1=O)C(=O)N[C@@H](CCCNC(=N)N)C(=O)N[C@@H](CCC(N)=O)C(=O)N[C@@H](C(C)C)C(=O)N[C@@H](CCCNC(=N)N)C(=O)N[C@H](C(=O)N[C@@H](CCCNC(=N)N)C(=O)N[C@@H](Cc1c[nH]c2ccccc12)C(=O)O)CSCCC3=O` (H-RCFRLPCRQVRCRW-OH; linker 2-7-12 via TATA) had a pKi of 6.49.

The compound `CC(C)C[C@@H]1NC(=O)[C@H](CC(N)=O)NC(=O)[C@H](CCCNC(=N)N)NC(=O)[C@@H]2CSCCC(=O)N3CN(CN(C3)C(=O)CCSC[C@H](NC(=O)[C@@H](N)CCCNC(=N)N)C(=O)N[C@@H](Cc3ccccc3)C(=O)N[C@@H](CCCNC(=N)N)C(=O)N[C@@H](CC(C)C)C(=O)N3CCC[C@H]3C(=O)N2)C(=O)CCSC[C@@H](C(=O)N[C@@H](CCCNC(=N)N)C(=O)N[C@@H](Cc2c[nH]c3ccccc23)C(=O)O)NC(=O)[C@H](CCCNC(=N)N)NC1=O` (H-RCFRLPCRNLRCRW-OH; linker 2-7-12 via TATA) gave a pKi of 6.00.

The pKi is −log10 of the Ki, conventionally taken in molar units. Lower therefore signals a large Ki.
